The test system of one assay is TGF-beta. As to the kind of experiment: RT-PCR/northern blot of cytokine mRNA in cultured hippocampal slices. It is filed as cell-based. The note with it: ZPAD 20 μM, mevastatin 20 μM.
The test system of assay [1] is tangle-like structures. As to the kind of experiment: AT8 immunocytochemistry of cultured mouse hippocampal slices. Particulars: ZPAD 6 days; for number of AT8 immunopositive profiles: 0.3 mm^2 box at CA1/subicular border, mean±s.e.m., n=5. The format is cell-based. As to the method: Hippocampal slices were prepared from 10 to 13 day old C57BL/6J (wild-type) and C57BL/6J-ApoE^tm1Unc (ApoE-knockout) mice obtained from the Jackson laboratory, Bar Harbor, Me. Pups were placed under light bromo-chloro-trifluoroethane anesthesia (Sigma, St. Louis, Mo.), and killed by decapitation. After removing the brains, the hippocampus was dissected and subsequently placed on a McIlwain tissue chopper where slices (400 μm thick) were obtained and placed in a solution of cutting medium consisting of Minimum Essential Medium (MEM) with Earle's salts (Gibco, Grand Island, N.Y.), 25 mM HEPES buffer, 10 mM Tris base, 10 mM glucose, and 3 mM MgCl2, pH 7.20. Hippocampal slices were then placed onto the membranes of Millicell-CM culture inserts (Millipore Corp., Bedford, Mass.) in 6 well culture cluster plates and 1 ml of media per well using the methods described by Stoppini et al., J. Neurosci. Methods 37(2):173-82 (1991). The culture medium was described previously by Bednarski et al., J. Neurosci. 17(11):4006-21 (1997). The cultures were incubated in a 37° C. atmosphere containing 5% CO2 and the culture medium was replaced every other day until the initiation of experiments. Each culture cluster plate contained hippocampal slices from either two wild-type or two apoE-knockout mice and individual wells were used for matched control and experimental treatment groups.
After maintaining the slices with normal culture medium (Bednarski et al., J. Neurosci. 17(11):4006-21 (1997)) in vitro for 12-14 days, slices were incubated with culture medium containing either 20 μM N-CBZ-L-phenylalanyl-L-alanine-diazomethyl-ketone (ZPAD; BACHEM Bioscience, Inc., Torrance, Calif.), an inhibitor of cathepsins B and L (Shaw & Dean, Biochem. J. 186:385-390 (1980); Green & Shaw, J Biol Chem. 256:1923-1928 (1981); Richardson et al., J. Cell Biol. 107: 2097-2107 (1988)) or vehicle (dimethylsulfoxide; DMSO, 0.01%-0.04%) for six days. This treatment media was exchanged every other day.
For immunocytochemical staining, control and ZPAD-treated slices from both wild-type and apoE-deficient mice were fixed in 4% paraformaldehyde in 0.1 M phosphate buffer (“PB”) at 4° C. overnight, rinsed once in a solution of phosphate buffered saline PBS (PB: phosphate buffer: 0.1M Na2HPO4 and NaH2PO4; PBS: phosphate buffered saline: NaCl 8 g, KCl 0.2 g, Na2HPO4 1.44 g, KH2PO4 0.24 g, dissolved in 1 liter distilled water, pH 7.4) cryoprotected in 20% sucrose in 0.1 M PB, sectioned on a freezing microtome at 25 μm parallel to the broad upper surface of the explant and mounted onto sterile Fisher Superfrost/Plus slides. […]

The subject of another assay is reactive microglia. Put plainly: ED-1 immunocytochemistry of cultured brain explants. The format is cell-based, rat. Particulars: ZPAD 20 μM, mevastatin 20 μM or PD98059 50 μM alone, 6 days. As to the method:
Immunocytochemical studies using the monoclonal antibody ED-1 that recognizes reactive microglia were used at 1:1000 dilution following standard immunohistochemical procedures. Microglial activation was determined by measuring cell numbers, optical density, and size of cell bodies using the program NIH Image. Brain tissue was cultured for 12 days and treated with ZPAD (20 μM) in the presence or absence of PD98059 (50 μM) for 6 days (FIG. 18). Cultured explants were then sliced and stained by using monoclonal antibody ED-1 which recognizes reactive microglia, a classical marker of inflammation. […] Cultured brain explants were then sliced and stained by using monoclonal antibody ED-1, a classical marker for reactive microglia and macrophages.

In assay [2] the test system is tangle-like structures. As to the kind of experiment: AT8 immunostaining of cultured rat hippocampal slices. The format is cell-based. The note with it: rat hippocampal slices; agent applied for 6 days.
Procedure: Cultured slices were stained with anti-phosphorylated tau antibody AT8.
(§1) Cultures of hippocampal slices were prepared from 10-12 days old rats.
Cultured rat hippocampal slices of 12 days in vitro were treated with 20 μM pravastatin for 6 days and processed from immunohistological studies with the monoclonal antibody AT8. The subiculum, CA1 field, and CA3 field of the hippocampus were examined by photomicroscopy.
The next assay concerns cathepsin D. The note with it: literature report; cited from earlier work.
Another assay has as its system IL-10. Put plainly: RT-PCR/northern blot of cytokine mRNA in cultured hippocampal slices. Particulars: ZPAD 20 μM, mevastatin 20 μM. It is filed as cell-based.
In another assay the test system is p35. As to the kind of experiment: Immunoblot of p35/p25 in cultured rat hippocampal slices. Particulars: hippocampal slices. It is filed as cell-based.
The subject of a further assay is MAPK (ERK1/2). Put plainly: Immunoblot with anti-active MAPK in cultured hippocampal slices. It is filed as cell-based. Particulars: hippocampal slices; 6 days. For orientation: In western blotting, separated proteins are transferred to a membrane and probed.
In another assay the test system is tau protein. Particulars: literature report; cited from earlier work.

“Also recorded” adds a separate entry of the source.

Procedure for p35: Hippocampal slices were collected, homogenized, and subjected to SDS-PAGE electrophoresis. Immunoblots were then probed with anti-p35 sera that were raised against the C-terminal domain of p35.
as §1

In the case of “N-CBZ-L-phenylalanyl-L-alanine-diazomethyl-ketone [ZPAD]”, the “mRNA levels of TGF-beta” value in the assay on TGF-beta is recorded as “increases”. The AT8-immunoreactive tangle-like structures entry in the assay with tangle-like structures [1] (apoE-knockout mouse slices) is “present in large numbers; also recorded: significantly increased; also recorded: more than double; also recorded: Numerous, densely stained neurons; also recorded: Numerous immunopositive neurons; also recorded: numerous, densely labeled cells”; in the assay on tangle-like structures [1] (wild-type mouse slices) it was “occasionally found; also recorded: far fewer AT8-ir structures”. The “number of AT8 immunopositive profiles” value with tangle-like structures [1] (apoE-knockout slices) is recorded as 193.8±15; in the assay with tangle-like structures [1] (wild-type slices), 112.6±13. The “reaction of microglia (ED-1 staining)” value in the assay on reactive microglia is “triggered significant reaction of microglia”. The “induction of AT8-immunoreactive tangle-like structures” value in the assay with tangle-like structures [2] is on record as “only a small number; also recorded: moderately increased; also recorded: induced numerous tangles”. For the same substance, the “enzymatically active cathepsin D” value in the assay on cathepsin D is listed as “increases in enzymatically active cathepsin D”. Besides, the “mRNA levels of IL-10” value in the assay on IL-10 is listed as “increases”. For the same substance, the “levels of p35” value in the assay on p35 (6 days) is recorded as “significant decrease”. The “truncated form p25” value with p35 (six day treatment) was “paralleled increase”. Besides, the “activated MAPK (ERK1/2)” value with MAPK (ERK1/2) is on record as “activated; also recorded: activation”. Moreover, the “29 kDa tau fragment (tau 29)” value with tau protein is listed as “production of a 29-kDa tau fragment; also recorded: delayed appearance of a 29 kDa fragment”. For the same substance, the “high molecular weight isoforms of tau protein” value with tau protein is on record as “degradation of high molecular weight isoforms of tau protein”.

Values taken from US6803233B2, “Model for Alzheimer's disease and other neurodegenerative diseases” (priority 2000, dated 2004).
